Square brackets hold non-standard residues; d marks the D form. Ends that are not written are not given here. Dip = N[C@H](C(=O)O)C(c1ccccc1)c1ccccc1
Columns and labels:
A375 cells = assay: Confocal microscopy, internalization of fluorescence-labeled peptide; assay type: cell-based, human
Procedure: The A375 cell line A375 (ECACC, 88113005) is a human malignant melanoma derived from patient material, and was purchased from Public Health England (PHE Culture Collections, Porton Down, Salisbury, UK). Cells were maintained as monolayer cultures in high glucose […] DMEM supplemented with 10% FBS and 1% L-glutamine, but not as antibiotics (complete media). The cell line was grown in a humidified 5% CO2 atmosphere at 37° C., and was regularly tested for the presence of mycoplasma with MycoAlert (Lonza).
Fixed cells, fluorescence-labeled peptide—Subconfluential A375 cells were seeded at 8,000 cells/well as above, and transfected on the second day using the Lipofectamine LTX with Plus transfection reagents (Invitrogen) following the manufacturer's protocol. The mitochondria were labeled using the pDsRed2-Mito, and the nucleus was labeled using the GFP-Histon2B plasmid (Imaging Platform, University of Tromsø). A day after transfection, cells were washed twice with serum-free RPMI, and treated at different concentration and incubation periods with LTX-315 Pacific Blue or LTX-328 Pacific Blue. […] Control cells were treated with unlabeled LTX-315 and also with serum-free RPMI only. After incubation, cells were fixed with 4% paraformaldehyde in PBS, and the wells were covered with Prolong Gold antifade (Invitrogen). Cells were further analyzed by use of a Leica TCS SP5 confocal microscope, with a […] objective. Pacific Blue, GFP and Ds Red were excited using UV, with 488 and 561 lasers, and fluorescence channels were sequentially detected using the following band passes: UV: 420-480 nm (with attenuation), 488: 501-550 nm and 561: 576-676 nm.

MCA205 sarcomas = assay: T-cell depletion, tumour growth of MCA205 sarcomas; assay type: in vivo, C57BL/6 mice; conditions: three intratumoural daily injections of 300 μg
Procedure: Mice were subcutaneously injected into the right flank with 1×10^6 MCA205 cells. Tumour cell lines were inoculated into C57BL/6 mice. Tumour surfaces (longest dimension×perpendicular dimension) were routinely monitored by caliper. When tumours reached a size of 20-25 mm^2 (day 0), mice were administered intratumourally with three consecutive daily injections of 300 μg LTX-315. In T-cell depletion experiments (FIG. 24), anti-CD4 and anti-CD8 monoclonal antibodies (mAbs) (GK1.5 and 53-6.72, respectively; 200 μg per mouse) or their isotype controls (LTF-2 and 2A3, respectively) were injected intraperitoneally 3 and 4 days before the first LTX-315 injection and continued every other 7 days. All mAbs for in vivo use were obtained from BioXcell (West Lebanon, NH, USA), using the recommended isotype control mAbs.

[1] = system: tumour tissue sections from patients; assay: Clinical histology, CD3/CD8 immunostaining of patient tumours; assay type: in vivo, human
Procedure: Formalin-fixed and paraffin-embedded tumour tissue sections from patients were deparaffinized in xylene and graded alcohols, hydrated and washed in PBS. After antigen retrieval in sodium citrate buffer (pH 6) in a microwave oven, the endogenous peroxidase was blocked by 0.3% H2O2 for 15 min. Sections were incubated overnight at 4° C. with primary antibody; rabbit polyclonal anti-CD3 (clone A0452 Dako) or mouse monoclonal anti-CD8 (clone OX8, ab33786, Abcam). As a secondary antibody, the anti-rabbit-horseradish peroxidase (HRP) SuperPicTure Polymer detection kit (Invitrogen) or Envision system HRP-anti-mouse (Dako) were used. A matched isotype control was used as a control for nonspecific background staining

HEPG2 = assay: In vitro cytotoxicity, MTT assay; assay type: cell-based; conditions: HEPG2 human hepatocellular carcinoma
Description: (§1) JM1, a rat hepatocellular carcinoma, HEPG2 and BEL7402, both human hepatocellular carcinomas, were kindly provided by Dr. Pål-Dag Line, Director, Department of Transplantation Medicine, Oslo University Hospital. B16F1 (ATCC, CRL-6323), a murine skin malignant melanoma, MDA-MB-435S (HTB-129), a human malignant melanoma originating from a breast metastases, Malme-3M (HTB-64), a human malignant melanoma derived from a lung metastases, MRC-5 (ATCC, CCL-171), normal human lung fibroblasts, SK-N-AS (ATCC, CRL-2137), a human neuroblastoma cell line derived from a bone marrow metastases, HT-29 (ATCC, HTB-38), a human colorectal adenocarcinoma and HUV-EC-C (ATCC, CRL-1730), a human vascular endothelium cell line, were all purchased from the American Type Culture Collection (ATCC-LGC Standards, Rockville, MD, USA). HaCat, a human keratinocyte cell line, was kindly provided by Dr. Ingvild Pettersen, Department of Host Microbe Interactions, University of Tromsø. A375, a malignant melanoma cell line of human origin, was purchased from Public Health England (PHE Culture Conditions, Porton, Down, Salisbury, UK). JM1, A375, BEL7402, HEPG2 and B16F1 were all maintained in culture media consisting of DMEM (high glucose), while SK-N-AS, HT-29 and MDA-MB-435S were cultured in an RPMI-1640 medium containing 2 mM L-glutamine and sodium bicarbonate. Malme-3M was cultured in RPMI-1640, containing 4 mM L-glutamine and 20% FBS (fetal bovine serum). Lastly, the three non-malignant cell lines, HUV-EC-C, MRC-5 and HaCat, were cultured, respectively, using the EGM-2 BulletKit (Lonza, MA), containing basal media and growth factors, MEM (normal glucose) also containing 2 mM L-glutamine and 1% non-essential amino acids and DMEM (normal glucose) containing 2 mM L-glutamine. All media were (if not specified otherwise) supplemented with 10% FBS, with the exception of the EGM-2 BulletKit, which is delivered with an aliquot of 10 ml FBS to yield a final concentration of 2% FBS in solution. […]

MDA-MB-435S = assay: In vitro cytotoxicity, MTT assay; assay type: cell-based; conditions: MDA-MB-435S human malignant melanoma
Description: as §1

remaining cell lines = assay: In vitro cytotoxicity, MTT assay; assay type: cell-based
Description: as §1

| Molecule | accumulation of labelled peptide around the mitochondria (A375 cells; 1.5 μM, 30 minutes) | detection of labelled peptide in the cell nucleus (A375 cells; 1.5 μM, 30 minutes) | internalization of peptide (A375 cells; 3 μM, 60 min) | internalization of Pacific Blue-labelled peptide (A375 cells; A375 cells, 3 μM and 1.5 μM) | antitumor effects in presence of antibodies depleting CD4+ and CD8+ T cells (MCA205 sarcomas) | infiltration of CD3+ and CD8+ cells ([1]; breast carcinoma patient) | infiltration of CD3+ and CD8+ cells ([1]; desmoid tumour patient) | infiltration of CD8+ cells ([1]; malignant melanoma patient) | infiltration of CD3+ and CD8+ cells ([1]; metastatic melanoma patient) | infiltration of CD3+ and CD8+ cells ([1]; myo-epithelioma patient) | IC50 (HEPG2) | IC50 (MDA-MB-435S) | IC50 (remaining cell lines) |
| --- | --- | --- | --- | --- | --- | --- | --- | --- | --- | --- | --- | --- | --- |
| K-K-W-W-K-K-W-Dip-K-NH2 (KKWWKKW[Dip]K-NH2) [LTX-315] | showed an accumulation around the mitochondria | not detected in the cell nucleus | detected in the cytoplasm | rapidly penetrated the plasma membrane | completely abrogated the antitumor effects | infiltration of CD3^+ positive cells | infiltration of CD3^+ positive cells | infiltration of CD8^+ positive cells | infiltration of CD3^+ positive cells | infiltration of CD3^+ positive cells |  |  |  |
| Cl.Cl.NCCNC(=O)C(CN)(CCCc1ccccc1)CCCc1ccccc1 [LTX-401] |  |  |  |  |  |  |  |  |  |  | 35.4 µM | 13.5 µM | 19 to 32 µM |
